Laboratory results from patent publication US20240208895A1, “BRANCHED-CHAIN AMINO ACID DERIVATIVES TO TREAT DISEASE” (INTRABIO LTD., priority 2021, published 2024).

Legend:
[1] = biological target: T1, OAT1 (SLC22A6) (Homo sapiens, UniProt Q4U2R8); assay: OAT1 transporter-mediated cellular uptake (substrate test); format: cell-based; conditions: uptake 5 min, 37° C.
T1 construct: host or cells: HEK-293
T1 sequence (Q4U2R8 1-563): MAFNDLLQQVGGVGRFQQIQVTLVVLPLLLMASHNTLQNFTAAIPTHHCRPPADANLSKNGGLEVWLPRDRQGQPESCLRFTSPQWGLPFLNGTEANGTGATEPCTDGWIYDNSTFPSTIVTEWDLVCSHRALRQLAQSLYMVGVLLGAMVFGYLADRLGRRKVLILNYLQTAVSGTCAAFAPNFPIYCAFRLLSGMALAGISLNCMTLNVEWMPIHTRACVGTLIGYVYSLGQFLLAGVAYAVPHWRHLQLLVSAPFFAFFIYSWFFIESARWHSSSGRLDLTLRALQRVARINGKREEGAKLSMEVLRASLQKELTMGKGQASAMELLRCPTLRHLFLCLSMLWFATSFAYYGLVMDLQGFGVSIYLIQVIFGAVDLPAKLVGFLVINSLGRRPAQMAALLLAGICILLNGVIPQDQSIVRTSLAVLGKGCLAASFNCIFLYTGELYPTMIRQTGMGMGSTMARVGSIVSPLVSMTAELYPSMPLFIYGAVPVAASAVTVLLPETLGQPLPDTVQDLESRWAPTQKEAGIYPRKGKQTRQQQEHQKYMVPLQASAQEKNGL
Procedure: DMSO (0.5%) was the solvent control (SC) and the known inhibitor diclofenac (100 μM) was the positive control (PC). Data were fit to either the Michalis-Menten equation for uptake or the Hill equation for inhibition using the solvent control to define the top and the positive control inhibitor to define the bottom. Symbols represent the mean±SEM, n=3.
Human OAT1 (SLC22A6) and OAT3 (SLC22A8) overexpressing HEK-293 cells and control cells without transfected transporter (Corning® TransportoCells™) are plated to 24-well plates and cellular uptake of 10 to 100 μg/mL of a Compound of the Disclosure is measured in the absence and presence of transporter inhibitors. Uptake of a Compound of the Disclosure into control cells is measured only without chemical inhibitors. […] Cells are grown in DMEM (Gibco 4196, high glucose, without sodium pyruvate) supplemented with MEM non-essential amino acids and 10% fetal bovine serum. Cells are re-fed with fresh medium after attachment (4-6 hours post-seeding). Cell are plated at a density of 4×10^5/well in 24-well plates coated with poly-D-lysine. Transporter assays are conducted in 400 μL of HBSS supplemented with 10 mM Hepes, pH 7.4 […]
Enzyme kinetic data for uptake and metabolism of a Compound of the Disclosure is analysed by fitting the Michaelis-Menten equation to the data. […]

[2] = biological target: T2, monocarboxylate transporter (MCT1) (Homo sapiens, UniProt P53985); conditions: read-out: Km, uptake by MCT1; uptake 1 min, room temperature
T2 sequence (P53985 1-500): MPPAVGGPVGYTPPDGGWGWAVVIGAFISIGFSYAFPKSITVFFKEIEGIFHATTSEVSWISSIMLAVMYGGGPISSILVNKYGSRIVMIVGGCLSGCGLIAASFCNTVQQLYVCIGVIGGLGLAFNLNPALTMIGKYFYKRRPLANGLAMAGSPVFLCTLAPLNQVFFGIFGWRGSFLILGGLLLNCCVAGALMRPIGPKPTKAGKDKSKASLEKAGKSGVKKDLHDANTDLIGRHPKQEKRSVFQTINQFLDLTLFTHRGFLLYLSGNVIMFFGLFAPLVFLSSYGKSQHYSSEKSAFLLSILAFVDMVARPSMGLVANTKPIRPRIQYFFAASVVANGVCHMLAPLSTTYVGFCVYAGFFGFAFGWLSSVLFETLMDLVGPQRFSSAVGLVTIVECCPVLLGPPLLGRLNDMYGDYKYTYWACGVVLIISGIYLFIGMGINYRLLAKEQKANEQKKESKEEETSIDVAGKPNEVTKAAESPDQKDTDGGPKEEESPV
Procedure: The known probe substrates used as positive controls are 3 μM chlorothiazide for OAT1, 2 μM estrone-3-sulfate for OAT3, 10 μM gabapentin for LAT1, 50 μM Gly-Sar for PepT1, 500 μM thiophene-2-glyoxylic acid for MCT1.
Enzyme kinetic data for uptake and metabolism of a Compound of the Disclosure is analysed by fitting the Michaelis-Menten equation to the data. V0=Vmax[S]/Km+[S], where V0 is initial velocity, [S] is substrate concentration, Vmax is maximum velocity and Km is substrate concentration at half Vmax. All fitting is performed using GraphPad Prism 8.4 software (GraphPad Software Inc). No weighting scheme is applied.

substrate of OAT1 (uptake) [1]: substrate
Km [2]: 3 mM
SMILES: CC(=O)N[C@@H](CC(C)C)C(=O)O [N-acetyl-L-leucine]
